Test results from patent US10780074B2, “Compounds and uses thereof” (Sunovion Pharmaceuticals Inc., priority 2017, dated 2020).
Where a name gives a salt, the structure may show the parent alone.

Test system: behaviors of compound-treated mice
Experiment: Neuropharmacological Assay (SmartCube)
Format: in vivo
Settings: for minimal effective dose: Mus musculus, ip, 0.25 h, dose having 50% or more total activity in SmartCube, i.p., read-out: MED (minimal effective dose); for AD: ADHD (probability that activity matches class) / AG: analgesic (probability that activity matches class) / AX: anxiolytic (probability that activity matches class) / CE: cognitive enhancer (probability that activity matches class) / DP: anti-depressant (probability that activity matches class) / MS: mood stabilizer (probability that activity matches class) / PS: anti-psychotic (probability that activity matches class) / SD: sedative hypnotic (probability that activity matches class) / UN: uncharacterized CNS activity (probability that activity matches class): i.p. 15 min before behavioral test, most efficacious dose(s) of 3 doses
In short: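 Mice dosed i.p. 15 min before testing, with compound in N-methyl-2-pyrrolidone/PEG/propylene glycol, were video-recorded and algorithmically compared with reference-drug behavioral signatures. This gave class-match probabilities (antidepressant, anxiolytic, etc.) at the most efficacious of 3 doses. MED was defined as the dose with ≥50% total activity, usually tested across 0.3–30 mpk.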

| SMILES | minimal effective dose | AD: ADHD (probability that activity matches class) | AG: analgesic (probability that activity matches class) | AX: anxiolytic (probability that activity matches class) | CE: cognitive enhancer (probability that activity matches class) | DP: anti-depressant (probability that activity matches class) | MS: mood stabilizer (probability that activity matches class) | PS: anti-psychotic (probability that activity matches class) | SD: sedative hypnotic (probability that activity matches class) | UN: uncharacterized CNS activity (probability that activity matches class) |
| --- | --- | --- | --- | --- | --- | --- | --- | --- | --- | --- |
| CNC[C@@H]1OCCc2cc(-c3ncccn3)ccc21 [Compound 21, (R)—N-Methyl-1-(6-(pyrimidin-2-yl)isochroman-1-yl)methanamine hydrochloride salt] | 10 to 30 mg/kg | + (LOQ ≤ + <5%) | ++ (5% ≤ ++ <25%) | ++ (5% ≤ ++ <25%) | ++ (5% ≤ ++ <25%) | ++ (5% ≤ ++ <25%) | + (LOQ ≤ + <5%) | + (LOQ ≤ + <5%) | + (LOQ ≤ + <5%) | + (LOQ ≤ + <5%) |
| NC[C@@H]1OCCc2ccc(-c3cccnc3)cc21 (single isomer, unassigned) [Compound 11, hydrochloride] | 10 to 30 mg/kg | + (LOQ ≤ + <5%) | ++ (5% ≤ ++ <25%) | + (LOQ ≤ + <5%) | + (LOQ ≤ + <5%) | ++++ (50% ≤ ++++) | + (LOQ ≤ + <5%) | + (LOQ ≤ + <5%) | + (LOQ ≤ + <5%) | + (LOQ ≤ + <5%) |
| NC[C@H]1OCCc2c(-c3ccccc3)cccc21 (single isomer, unassigned) [Compound 131, hydrochloride salt] | ≤ 3 mg/kg | + (LOQ ≤ + <5%) | + (LOQ ≤ + <5%) | ++ (5% ≤ ++ <25%) | + (LOQ ≤ + <5%) | ++++ (50% ≤ ++++) | + (LOQ ≤ + <5%) | + (LOQ ≤ + <5%) | + (LOQ ≤ + <5%) | ++ (5% ≤ ++ <25%) |
| NC[C@@H]1OCCc2c(-c3ccon3)cccc21 (single isomer, unassigned) [Compound 88, hydrochloride salt] | 10 to 30 mg/kg | + (LOQ ≤ + <5%) | + (LOQ ≤ + <5%) | ++ (5% ≤ ++ <25%) | + (LOQ ≤ + <5%) | ++ (5% ≤ ++ <25%) | + (LOQ ≤ + <5%) | + (LOQ ≤ + <5%) | + (LOQ ≤ + <5%) | + (LOQ ≤ + <5%) |
| CNC[C@@H]1OCCc2cc(-c3cccnc3)ccc21 [Compound 5, (R)-N-Methyl(6-(pyridin-3-yl)isochroman-1-yl)methanamine bis-hydrochloride] | 3 to 10 mg/kg | + (LOQ ≤ + <5%) | ++ (5% ≤ ++ <25%) | ++ (5% ≤ ++ <25%) | + (LOQ ≤ + <5%) | ++++ (50% ≤ ++++) | + (LOQ ≤ + <5%) | ++ (5% ≤ ++ <25%) | + (LOQ ≤ + <5%) | + (LOQ ≤ + <5%) |
| CNC[C@@H]1OCCc2c(-c3ncc[nH]3)cccc21 [Compound 110, (R)-1-(5-(1H-Imidazol-2-yl)isochroman-1-yl)-N-methylmethanamine hydrochloride salt] | 10 to 30 mg/kg | + (LOQ ≤ + <5%) | + (LOQ ≤ + <5%) | ++ (5% ≤ ++ <25%) | + (LOQ ≤ + <5%) | + (LOQ ≤ + <5%) | + (LOQ ≤ + <5%) | + (LOQ ≤ + <5%) | + (LOQ ≤ + <5%) | + (LOQ ≤ + <5%) |
| CNC[C@@H]1OCCCc2c(-c3cncs3)cccc21 (single isomer, unassigned) [Compound 168, hydrochloride salt] | ≤ 3 mg/kg | ++ (5% ≤ ++ <25%) | + (LOQ ≤ + <5%) | ++ (5% ≤ ++ <25%) | + (LOQ ≤ + <5%) | ++++ (50% ≤ ++++) | + (LOQ ≤ + <5%) | + (LOQ ≤ + <5%) | ++ (5% ≤ ++ <25%) | ++ (5% ≤ ++ <25%) |
| CNC[C@H]1OCCc2c(-c3ccon3)cccc21 (single isomer, unassigned) [Compound 91, hydrochloride salt] | ≤ 3 mg/kg | ++++ (50% ≤ ++++) | + (LOQ ≤ + <5%) | ++ (5% ≤ ++ <25%) | + (LOQ ≤ + <5%) | ++++ (50% ≤ ++++) | + (LOQ ≤ + <5%) | + (LOQ ≤ + <5%) | ++ (5% ≤ ++ <25%) | +++ (25% ≤ +++ <50%) |
| CNC[C@@H]1OCCc2c(-c3c[nH]cn3)cccc21 (single isomer, unassigned) [Compound 114, hydrochloride salt] | 10 to 30 mg/kg | + (LOQ ≤ + <5%) | + (LOQ ≤ + <5%) | ++ (5% ≤ ++ <25%) | + (LOQ ≤ + <5%) | + (LOQ ≤ + <5%) | + (LOQ ≤ + <5%) | + (LOQ ≤ + <5%) | + (LOQ ≤ + <5%) | + (LOQ ≤ + <5%) |
| Cc1cc(-c2cccc3c2CCO[C@@H]3CN)cc(C)n1 [Compound 127, dihydrochloride] | 10 to 30 mg/kg | + (LOQ ≤ + <5%) | + (LOQ ≤ + <5%) | + (LOQ ≤ + <5%) | + (LOQ ≤ + <5%) | ++ (5% ≤ ++ <25%) | + (LOQ ≤ + <5%) | + (LOQ ≤ + <5%) | + (LOQ ≤ + <5%) | + (LOQ ≤ + <5%) |
| NC[C@H]1OCCc2c(-c3ccccn3)cccc21 (single isomer, unassigned) [Compound 46, hydrochloride] | 10 to 30 mg/kg | + (LOQ ≤ + <5%) | + (LOQ ≤ + <5%) | ++ (5% ≤ ++ <25%) | + (LOQ ≤ + <5%) | ++ (5% ≤ ++ <25%) | + (LOQ ≤ + <5%) | + (LOQ ≤ + <5%) | + (LOQ ≤ + <5%) | ++++ (50% ≤ ++++) |
